In the supplement of paper PMC6723410:

Test system: GUMC-403
Test: viability at highest tested concentration (max response) relative to DMSO (% of DMSO control); higher = less cytotoxic
Conditions: library / dose series: MIPE library, 11-point 1:3 dilution, 48 h
Summary of the method: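 In 1536-well plates, 700 GUMC-403 papilloma cells per well, taken from a patient and grown by conditional reprogramming, were seeded in 5 μL F + Y medium and incubated overnight at 37 °C. Compounds were pinned in at 23 nL in an 11-point 1:3 series, and left for 48 h before CellTiter-Glo luminescence was read on a ViewLux against vehicle (100%) and empty (0%) wells. Reported values are viability at the highest tested concentration relative to vehicle control.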

CCOc1ccccc1N/N=C1/C(=O)N(c2nc(-c3ccccc3)cs2)N=C1C
viability (top concentration 46.1 µM): 115

CCOc1cc(CC(=O)N[C@@H](CC(C)C)c2ccccc2N2CCCCC2)ccc1C(=O)O
viability (top concentration 46.1 µM): 143

O=C(O)CCNc1cc(N2CCc3ccccc3CC2)nc(-c2ccccn2)n1
viability (top concentration 46.1 µM): 125

O=C/1\C=C(/OC(=C1)/C2=C3SC4=C(SC3=CC=C2)C=CC=C4)N5CCOCC5
viability (top concentration 46.1 µM): 111

O=[S+]([O-])(NCCNC/C=C/c1ccc(Br)cc1)c1cccc2cnccc12
viability (top concentration 46.1 µM): 72.3

Cc1cc2c(C(C)C)c(O)c(O)c(C=O)c2c(O)c1-c1c(C)cc2c(C(C)C)c(O)c(O)c(C=O)c2c1O
viability (top concentration 46.1 µM): 77.1

C/C(=C\c1csc(C)n1)[C@@H]1C[C@@H]2O[C@@H]2CCC[C@H](C)[C@H](O)[C@@H](C)C(=O)C(C)(C)[C@@H](O)CC(=O)O1
viability (top concentration 46.1 µM): 114

c1cc(-c2sc(-c3ccncc3)c(-c3ccncc3)c2-c2ccncc2)ccn1
viability (top concentration 46.1 µM): 106

Cc1c(C(=O)NN2CCCCC2)nn(-c2ccc(Cl)cc2Cl)c1-c1ccc(Cl)cc1
viability (top concentration 46.1 µM): 109

C[C@@H](O)[C@@H]1NC(=O)[C@H](CCCCN)NC(=O)[C@@H](Cc2c[nH]c3ccccc23)NC(=O)[C@H](Cc2ccccc2)NC(=O)[C@@H](NC(=O)[C@H](N)Cc2ccccc2)CSSC[C@@H](C(=O)N[C@H](CO)[C@@H](C)O)NC1=O
viability (top concentration 46.1 µM): 89.7

C[C@H]1[C@H](NC(=O)/C(=N/OC(C)(C)C(=O)O)c2csc(N)n2)C(=O)N1[S+](=O)([O-])O
viability (top concentration 46.1 µM): 114

COC(=O)[C@H](Cc1ccccc1)NC(=O)[C@@H](N)CC(=O)O
viability (top concentration 46.1 µM): 102

C[C@@H]1CC[C@@]2(CC[C@]3(C)\C(=C/C[C@@H]4[C@@]5(C)C[C@@H](O)[C@H](O)[C@@](C)(CO)[C@@H]5CC[C@@]34C)[C@@H]2[C@H]1C)C(O)=O
viability (top concentration 46.1 µM): 114

[NH2][Pt]([NH2])([Cl])[Cl]
viability (top concentration 46.1 µM): 128

CC(C)[C@H](O)C(=O)N[C@@H](C)C(=O)N[C@@H]1C(=O)N(C)CCc2ccccc21
viability (top concentration 46.1 µM): 84.6

O=C(c1ccc(F)cc1)N1CCC[C@H](c2nc(-c3ccc(F)cc3)no2)C1
viability (top concentration 46.1 µM): 119

CCOC(=O)c1ccc(OC(=O)CCCCCNC(=N)N)cc1
viability (top concentration 46.1 µM): 138

COC1=CC=C(C=C1)C2CC(=N/N2C3=CC=C(C=C3)[S+](N)([O-])=O)\C4=CC=CC=C4 (stereo not given)
viability (top concentration 46.1 µM): 137

C[C@@H](Cc1cc2c(c(C(N)=O)c1)N(CCCO)CC2)NCCOc1ccccc1OCC(F)(F)F
viability (top concentration 46.1 µM): 112

Cc1cnn(C)c1C(=O)Nc1cc(Nc2ccc3c(/C=C/c4ccccn4)n[nH]c3c2)ccc1F
viability (top concentration 46.1 µM): 125

Oc1ccc(C2CCN(c3ccnc4ccccc34)CC2)cc1O
viability (top concentration 46.1 µM): 92.8

Cc1cc(-c2nnc3n2CCCCC3)c(C)n1-c1ccccc1
viability (top concentration 46.1 µM): 103

Nc1cccc([S+](=O)([O-])N2CCCN([S+](=O)([O-])c3ccc4c(c3)OCCO4)CC2)c1
viability (top concentration 46.1 µM): 87

CC1=C(CC(=O)O)c2cc(F)ccc2/C1=C\c1ccc([S+](C)[O-])cc1 (stereo not given)
viability (top concentration 46.1 µM): 59.8

COc1cc2nc(N3CCCN(C)CC3)nc(NC3CCN(Cc4ccccc4)CC3)c2cc1OC
viability (top concentration 46.1 µM): 13.6

CC(C)n1cnc2c(NCCCCCCNC(=O)OC(C)(C)C)nc(NCCO)nc21
viability (top concentration 46.1 µM): 107

COc1ccc2[nH]c([S+]([O-])Cc3ncc(C)c(OC)c3C)nc2c1 (stereo not given)
viability (top concentration 46.1 µM): 88.8

C[C@@H]1C[C@@H]([C@H](O)CC2CC(=O)NC(=O)C2)C(=O)[C@@H](C)C1
viability (top concentration 46.1 µM): 89.5

O=[S+]([O-])(CCSSCC[S+](=O)([O-])[O][Na])[O][Na]
viability (top concentration 46.1 µM): 119

C[N]1C=C(C2=CC=CC=C12)\C3=C(\C(=O)NC3=O)C4=C[N](C5CCN(CC5)CC6=NC=CC=C6)C7=C4C=CC=C7
viability (top concentration 46.1 µM): 128

COC1=C2OC(=O)\C=C/C2=CC3=C1OC=C3
viability (top concentration 46.1 µM): 102

COc1c(Cl)cc2c([nH]c3cnccc32)c1NC(=O)c1cccnc1C
viability (top concentration 46.1 µM): 96.7

CCC(=O)O[C@@]1([C@H](C)C[C@H]2[C@@H]3C[C@H](F)\C4=C\C(=O)\C=C/[C@]4(C)[C@@]3(F)[C@@H](O)C[C@]12C)C(=O)SCF
viability (top concentration 46.1 µM): 162

COc1ccc2cc1Oc1ccc(cc1)C[C@H]1c3cc(c(OC)cc3CCN1C)Oc1c(OC)c(OC)cc3c1[C@H](C2)N(C)CC3
viability (top concentration 46.1 µM): 86

CC1=CC=C2N=C(NC(=O)CS\C3=N\C4=C(\SCC4)C(=O)N3C5=CC=CC=C5)SC2=C1
viability (top concentration 46.1 µM): 109

COc1cc2c(cc1O)CCC1C2CC[C@@]2(C)C1CC[C@@H]2O (stereo not given in full)
viability (top concentration 46.1 µM): 101

C[C@@H]1C/C=C/C=C/C=C/C=C/[C@@H](O[C@@H]2O[C@H](C)[C@@H](O)[C@H](N)[C@@H]2O)C[C@@H]2O[C@](O)(C[C@@H](O)C[C@@H]3O[C@H]3/C=C/C(=O)O1)C[C@H](O)[C@H]2C(=O)O
viability (top concentration 46.1 µM): 104

C[C@@H]1CN[C@H]2[C@@H](C)[C@@]\3(CC[C@H]\4[C@@H]5C/C=C6/C[C@@H](O)CC[C@]6(C)[C@H]5CC4=C3C)O[C@@H]2C1
viability (top concentration 46.1 µM): 116

Cc1c(C(=O)c2cccc3ccccc23)c2cccc3c2n1[C@H](CN1CCOCC1)CO3
viability (top concentration 46.1 µM): 76.9

COC(=O)N[C@H](C(=O)N[C@@H](Cc1ccccc1)[C@@H](O)CN(Cc1ccc(-c2ccccn2)cc1)NC(=O)[C@@H](NC(=O)OC)C(C)(C)C)C(C)(C)C
viability (top concentration 46.1 µM): 112

C[C@@H]1[C@H](O)[C@@H](C)/C=C/C=C/C=C/C=C/C=C/C=C/C=C/[C@H](O[C@@H]2O[C@H](C)[C@@H](O)[C@H](N)[C@@H]2O)C[C@@H]2O[C@](O)(C[C@@H](O)C[C@@H](O)[C@H](O)CC[C@@H](O)C[C@@H](O)CC(=O)O[C@H]1C)C[C@H](O)[C@H]2C(=O)O
viability (top concentration 46.1 µM): 123

COC(c1ccccc1)(c1ccccc1)[C@H](Oc1nc(C)cc(C)n1)C(=O)O
viability (top concentration 46.1 µM): 136

NC(=O)c1ccc(I)c([N+](=O)[O-])c1
viability (top concentration 46.1 µM): 122

CC1=C(CC/C(C)=C/CCC2=CCC(C3=CC(=O)OC3O)OC2O)C(C)(C)CCC1 (stereo not given)
viability (top concentration 46.1 µM): 99.7

CC(C)c1onc(-c2c(Cl)cccc2Cl)c1COc1ccc(/C=C/c2cccc(C(=O)O)c2)c(Cl)c1
viability (top concentration 46.1 µM): 123

C\C1=N\N=C(\C2=CC=C(N)C=C2)C3=CC4=C(OCO4)C=C3C1
viability (top concentration 46.1 µM): 132

CCCCCCCCCCCCCCCCCCOP(=O)([O-])OC1CC[N+](C)(C)CC1
viability (top concentration 23 µM): 127

C/C1=C2/[N]3[Co+]456([OH])<-[N]7=C1[C@@H](CCC(N)=O)C(C)(C)/C7=C/C1=[N]->4C(=C(/C)C4=[N]->5[C@@](C)([C@H]3[C@H](CC(N)=O)[C@@]2(C)CCC(=O)NC[C@@H](C)OP(=O)([O-])O[C@H]2[C@@H](O)[C@@H](n3c[n]->6c5cc(C)c(C)cc53)O[C@@H]2CO)[C@@](C)(CC(N)=O)[C@@H]4CCC(N)=O)/[C@@](C)(CC(N)=O)[C@@H]1CCC(N)=O
viability (top concentration 46.1 µM): 91.2

c1ccc2c(CN3CCNCC3)cccc2c1
viability (top concentration 46.1 µM): 122

CC(C)(C)NCC(O)c1ccc(O)c(CO)c1 (stereo not given)
viability (top concentration 46.1 µM): 109

CC(=O)O[C@@]12CO[C@@H]1C[C@H](O)[C@]3(C)[C@@H]2[C@H](OC(=O)C4=CC=CC=C4)[C@]5(O)C[C@H](OC(=O)C(O)[C@@H](NC(=O)OC(C)(C)C)C6=CC=CC=C6)C(=C(/[C@@H](O)C3=O)C5(C)C)/C (stereo not given in full)
viability (top concentration 46.1 µM): 103

Nc1nc(-c2nn(Cc3ccccc3F)c3ncccc23)nc(N)c1N1CCOCC1
viability (top concentration 46.1 µM): 111

NC(=O)c1cccnc1
viability (top concentration 46.1 µM): 136

O=C1CCc2ccc(OCCCCN3CCN(c4cccc(Cl)c4Cl)CC3)cc2N1
viability (top concentration 46.1 µM): 99.5

CCN(CCO)CCCC(C)Nc1ccnc2cc(Cl)ccc12 (stereo not given)
viability (top concentration 46.1 µM): 116

CC(C)c1cccc(C(C)C)c1O
viability (top concentration 46.1 µM): 108

CCCCc1nc2cc(/C=C/C(=O)NO)ccc2n1CCN(CC)CC
viability (top concentration 46.1 µM): 67.2

CC(=O)Nc1ccc(O)cc1
viability (top concentration 46.1 µM): 123

C/C(=C\C(=O)Nc1ccccc1C(=O)O)c1ccc2ccccc2c1
viability (top concentration 46.1 µM): 127

CC(C)CC(=O)N[C@H](C(=O)N[C@H](C(=O)N[C@@H](CC(C)C)[C@@H](O)CC(=O)N[C@@H](C)C(=O)N[C@@H](CC(C)C)[C@@H](O)CC(=O)O)C(C)C)C(C)C
viability (top concentration 46.1 µM): 99.5

C[C@H]1C[C@H]2[C@@H]3CC[C@](O)(C(=O)CO)[C@@]3(C)C[C@H](O)[C@@H]2[C@@]\4(C)/C=C\C(=O)\C=C14
viability (top concentration 46.1 µM): 121

CC1(C)CCC(C)(C)c2cc(NC(=O)c3ccc(C(=O)O)cc3)ccc21
viability (top concentration 46.1 µM): 54.2

CC(NC(C)(C)C)C(=O)c1cccc(Cl)c1 (stereo not given)
viability (top concentration 46.1 µM): 127

CC(N)C12CC3CC(CC(C3)C1)C2 (stereo not given)
viability (top concentration 46.1 µM): 104

Cc1nn(Cc2ccccc2Cl)c(C)c1CN(C)CC(O)COc1ccc(Cl)cc1 (stereo not given)
viability (top concentration 46.1 µM): 90.9

COc1cc(Oc2ccnc3cc(OC)c(OC)cc23)ccc1NC(=O)NC(C)c1nccs1 (stereo not given)
viability (top concentration 46.1 µM): 110

CNC(=O)c1ccccc1Sc1ccc2c(/C=C/c3ccccn3)n[nH]c2c1
viability (top concentration 46.1 µM): 104

c1ccc(CNc2nc(NCc3ccccc3)c3ccccc3n2)cc1
viability (top concentration 46.1 µM): 51.8

CCOC(=O)Nc1ccc(NCc2ccc(F)cc2)cc1N
viability (top concentration 46.1 µM): 81.8

[O-]C(=O)C1=C(C(=C(Cl)C(=C1Cl)Cl)Cl)C/2=C/3\C=C(I)/C(=O)/C(=C3OC4=C2C=C(I)C(=C4I)[O-])I
viability (top concentration 46.1 µM): 82

O=C1c2c(O)cc(O)cc2OC(c2ccc(O)c(O)c2)C1O (stereo not given)
viability (top concentration 46.1 µM): 116

NC(=O)c1cccc2cn(-c3ccc([C@@H]4CCCNC4)cc3)nc12
viability (top concentration 46.1 µM): 98.4

NC[C@@H]1O[C@H](O[C@H]2[C@@H](O)[C@H](O[C@@H]3[C@@H](O)[C@H](N)C[C@H](N)[C@H]3O[C@H]3O[C@H](CN)[C@@H](O)[C@H](O)[C@H]3N)O[C@@H]2CO)[C@H](N)[C@@H](O)[C@@H]1O.O=S(=O)(O)O.O=S(=O)(O)O.O=S(=O)(O)O
viability (top concentration 46.1 µM): 119

O=C(/C=C/c1c(C(=O)[O-])[nH]c2cc(Cl)cc(Cl)c12)Nc1ccccc1
viability (top concentration 46.1 µM): 111

CC(=O)NC[C@H]1CN(c2ccc(N3CCOCC3)c(F)c2)C(=O)O1
viability (top concentration 46.1 µM): 120
